Source: US9951047B2, “Salt of monocyclic pyridine derivative and crystal thereof” (Eisai R&D Management Co., Ltd., priority 2014, dated 2018)

Columns and labels:
[1] = system: human stomach cancer cell line SNU-16; test: cells; conditions: SNU-16, 72 h, read-out: SNU-16 (IC50 (nM))
Protocol: Then, 10 μL of Cell Counting Kit-8 (Dojindo Laboratories, CK04) was added to each well, and the resultant was incubated for 1 to 2 hours in a 5% CO2 incubator (37° C.) to cause a color reaction. The absorbance value was measured with ENVISION™ (PerkinElmer Co., Ltd.) at 450 nm. Absorbance value of the wells without adding the test substance was defined as 100% and the absorbance value of the wells containing no cells was defined as 0%. Then, an absorbance ratio in the presence of the test substance was calculated.

[2] = system: SNU-16 subcutaneous xenograft; test: Antitumor effect in SNU-16 subcutaneous xenograft model in mice; format: in vivo; conditions: nude mice, tumor volume on last day
Protocol: Human stomach cancer cell line SNU-16, which had been cultured in an RPMI-1640 medium containing 10% FBS, and penicillin/streptomycin, were adjusted to a concentration of 1×10^8 cells/mL with Hanks' Balanced Salt Solution (GIBCO #24020) to prepare a cell suspension, and the suspension was mixed with MATRIGEL (BD Biosciences, Cat#354234) in a ratio of 1:1 to prepare a cell suspension in a concentration of 5×10^7 cells/mil. The cell suspension was inoculated in a volume of 100 μL into a subcutaneous part of a right flank of nude mice, 6 to 7 weeks of ages (BALB/cAJcl-nu/nu, female, Clea Japan Inc.). Seven days after cell inoculation, the shortest diameter and the longest diameter of a tumor in each mouse were measured by using an electronic digital caliper (Digimatic™ caliper, Mitutoyo Corporation), so as to calculate the volume of the tumor in accordance with the following calculation formula: Tumor volume (mm^3)=Longest diameter (mm)×Shortest diameter (mm)×Shortest diameter (mm)/2
On the basis of the volumes of tumors obtained on the first day of administration, the nude mice were grouped such that averages of the tumor volumes were substantially equal among the groups. Each test substance was dissolved in DMSO, Tween 80 was added thereto to prepare a solution in a 10-fold concentration and the thus prepared solution was stored at the freezer before use. Immediately before the administration, the stock solution was diluted with a 5% glucose solution to obtain a final administration solution (in which a ratio in % among DMSO, Tween 80 and the 5% glucose solution was 3.5:6.5:90). Each evaluation sample was orally administered to test substance administration group at a volume of 20 mL/Kg once a day continuously for 11 days, and in a control group, an administration solvent was orally administered under the same conditions. Incidentally, the experiment was conducted on groups each consisting of 5 mice.
With respect to each of the control group and test substance administration group, a ratio of the weight measured on the final day to the weight measured on the first day (relative body weight: RBW) was calculated. If a ratio of the RBW of the test substance administration group/the RBW of the control group is 0.9 or more, the corresponding test substance administration group was defined as a well-tolerated. In the test substance administration group thus defined as well-tolerated, a ratio of the tumor volume of the test substance-dosing group to the tumor volume of the control group obtained on the last day (T/C) (%) was calculated, and shown in Table 3.

SMILES: CNC(=O)n1ccc2cc(Oc3ccnc(NC(=O)c4ccc(C5CCN(CCO)CC5)cc4)c3)c(OCCOC)cc21 [Compound (I), 5-({2-[({4-[1-(2-hydroxyethyl)piperidin-4-yl]phenyl}carbonyl)amino]pyridin-4-yl}oxy)-6-(2-methoxyethoxy)-N-methyl-1H-indole-1-carboxamide]
- IC50 [1]: 4.2 nM
- T/C (%) ([2]; 6.25 mg/kg orally once a day for 11 days): 49%
- T/C (%) ([2]; 12.5 mg/kg orally once a day for 11 days): 26%
- T/C (%) ([2]; 25 mg/kg orally once a day for 11 days): 16%
- T/C (%) ([2]; 50 mg/kg orally once a day for 11 days): 7%
